Reference: PubChem BioAssay AID488967 (The Scripps Research Institute Molecular Screening Center, 2010)
The source made the active and inactive calls. How the calls were made is not given here.

test system: SARS coronavirus 3C-like protease (3CLpro, nsp5); test: blockers of SARS 3CLpro activity – biochemical, fluorescence, assay provider results, late-stage follow-up (AID 488967); conditions: recombinant 3CLpro, fluorogenic peptide cleavage; at 100 µM; active compounds read high

| Compound | inhibition |
| --- | --- |
| CC(C)(C)NC(=O)C(c1ccsc1)N(C(=O)Cn1nnc2ccccc21)c1ccc(NC(=O)C2CCCCC2)cc1 (configuration not stated) | 84.9% |
| CC(C)(C)NC(=O)C(c1cncnc1)N(C(=O)c1cnc[nH]1)c1ccc(C(C)(C)C)cc1 (configuration not stated) | 66.8% |
| CC(C)(C)NC(=O)C(c1cccnc1)N(C(=O)c1ncco1)c1ccc(C(C)(C)C)cc1 (configuration not stated) | 51.6% |
| O=C(Nc1ccc(N(Cc2ccsc2)C(=O)Cn2nnc3ccccc32)cc1)C1CC1 | 82.8% |
| CCC(C)c1ccc(N(C(=O)c2ccco2)[C@H](C(=O)NC(C)(C)C)c2cccnc2)cc1 (some centres not stated) | 93.1% |
| CC(C)(C)NC(=O)C(c1ccsc1)N(C(=O)Cn1nnc2ccccc21)c1ccc(NC(=O)c2cccs2)cc1 (configuration not stated) | 14.6% (inactive) |
| CC(C)(C)NC(=O)C(c1cccnc1)N(C(=O)Cc1cnc[nH]1)c1ccc(C(C)(C)C)cc1 (configuration not stated) | 15.7% (inactive) |
| CC(C)(C)NC(=O)C(c1cccnc1)N(C(=O)c1ccc(Cl)o1)c1ccc(C(C)(C)C)cc1 (configuration not stated) | 89.6% |
| O=C(Nc1ccc(N(Cc2ccsc2)C(=O)Cn2nnc3ccccc32)cc1)c1ccccc1 | 18.2% (inactive) |
| CC(C)(C)NC(=O)C(c1cccc(F)c1)N(C(=O)Cn1nnc2ccccc21)C1CC2CCC1C2 (configuration not stated) | 32.7% (inactive) |
| CC(C)(C)NC(=O)C(c1ccsc1)N(C(=O)Cn1nnc2ccccc21)c1ccc(NC(=O)C(C)(C)C)cc1 (configuration not stated) | 77.4% |
| CC(C)(C)NC(=O)C(c1cccnc1)N(C(=O)c1ccc[nH]1)c1ccc(C(C)(C)C)cc1 (configuration not stated) | 18.6% (inactive) |
| CC(C)COC(=O)Nc1ccc(N(Cc2ccsc2)C(=O)Cn2nnc3ccccc32)cc1 | 10.3% (inactive) |
| O=C(Nc1ccc(N(Cc2ccsc2)C(=O)Cn2nnc3ccccc32)cc1)c1cccs1 | 32.9% (inactive) |
| CC(=O)Nc1ccc(N(C(=O)Cn2nnc3ccccc32)C(C(=O)NCc2ccccc2)c2cccc(F)c2)cc1 (configuration not stated) | 84.7% |
| O=C(NCc1ccccc1)C(c1cccc(F)c1)N(C(=O)Cn1nnc2ccccc21)C1CC2CCC1C2 (configuration not stated) | 42.5% (inactive) |

| Compound | inhibition |
| --- | --- |
| O=C(Nc1ccc(N(Cc2ccsc2)C(=O)Cn2nnc3ccccc32)cc1)C1CCCCC1 | 22.1% (inactive) |
| O=C(NCc1ccccc1)C(c1cccc(F)c1)N(C(=O)Cn1nnc2ccccc21)C12CC3CC(CC(C3)C1)C2 (configuration not stated) | 11.1% (inactive) |
| CC(=O)Nc1ccc(N(C(=O)Cn2nnc3ccccc32)C(C(=O)NC(C)(C)C)c2cccc(F)c2)cc1 (configuration not stated) | 90.2% |
| CCC(C)c1ccc(N(C(=O)c2ccco2)[C@@H](C(=O)NC(C)(C)C)c2cccnc2)cc1 (some centres not stated) | -3.8% (inactive) |
| CC(C)(C)NC(=O)C(c1ccsc1)N(C(=O)Cn1nnc2ccccc21)c1ccc(NC(=O)C2CC2)cc1 (configuration not stated) | 85.7% |
| CC(C)C(=O)Nc1ccc(N(Cc2ccsc2)C(=O)Cn2nnc3ccccc32)cc1 | 83.6% |
| CC(C)(C)NC(=O)C(c1cccc(F)c1)N(C(=O)Cn1nnc2ccccc21)C12CC3CC(CC(C3)C1)C2 (configuration not stated) | 10.6% (inactive) |
| CC(C)(C)NC(=O)[C@@H](c1cccnc1)N(C(=O)c1ccco1)c1ccc(C(C)(C)C)cc1 | 98.8% |
| CC(C)(C)NC(=O)C(c1ccsc1)N(C(=O)Cn1nnc2ccccc21)c1ccc(NC(=O)c2ccccc2)cc1 (configuration not stated) | -7% (inactive) |
| O=C(Nc1ccc(N(Cc2ccsc2)C(=O)Cn2nnc3ccccc32)cc1)C1CCC1 | 85.7% |
| CC(C)COC(=O)Nc1ccc(N(C(=O)Cn2nnc3ccccc32)C(C(=O)NC(C)(C)C)c2ccsc2)cc1 (configuration not stated) | 0.9% (inactive) |
| CC(C)(C)C(=O)Nc1ccc(N(Cc2ccsc2)C(=O)Cn2nnc3ccccc32)cc1 | 86.3% |
| CC(C)(C)NC(=O)C(c1ccsc1)N(C(=O)Cn1nnc2ccccc21)c1ccc(NC(=O)c2ccno2)cc1 (configuration not stated) | 59.4% |
| CC(C)(C)NC(=O)C(c1cncnc1)N(C(=O)c1cnco1)c1ccc(C(C)(C)C)cc1 (configuration not stated) | 36.2% (inactive) |
| CC(C)(C)NC(=O)[C@H](c1cccnc1)N(C(=O)c1ccco1)c1ccc(C(C)(C)C)cc1 | 25% (inactive) |
| CC(C)(C)NC(=O)C(c1ccsc1)N(C(=O)Cn1nnc2ccccc21)c1ccc(NC(=O)C2CCC2)cc1 (configuration not stated) | 22.7% (inactive) |
